Test [1] concerns the target T1, HCV NS3/4A protease complex (Hepatitis C virus genotype 1a, UniProt P27958, C1454S/C1711G).
T1 construct: DNA encoding the recombinant HCV NS3/4A protease complex (amino acids 1027 to 1711) for these strains; inferred from pET21b vector and Ni-NTA purification) (C); made in house; host or cells: Escherichia coli BL21 (DE3), pET21b
The experiment in a line: FRET peptide assay to monitor HCV NS3/4A proteolytic activity. In kind it is biochemical. Particulars: NS3/4A strain not stated. From the text:
HCV NS3 protease complexes, derived from the BMS strain, H77 strain or J4L6S strain, were generated, as described below. These purified recombinant proteins were generated for use in a homogeneous assay (see below) to provide an indication of how effective compounds of the present disclosure would be in inhibiting HCV NS3 proteolytic activity.
The H77 and J4L6S strains were used for production of recombinant NS3/4A protease complexes. DNA encoding the recombinant HCV NS3/4A protease complex (amino acids 1027 to 1711) for these strains was manipulated as described by P. Gallinari et al. (see Gallinari P, Paolini C, Brennan D, Nardi C, Steinkuhler C, De Francesco R. Biochemistry. 38(17):5620-32, (1999)). Briefly, a three-lysine solubilizing tail was added at the 3′-end of the NS4A coding region. The cysteine in the P1 position of the NS4A-NS4B cleavage site (amino acid 1711) was changed to a glycine to avoid the proteolytic cleavage of the lysine tag. Furthermore, a cysteine to serine mutation was introduced by PCR at amino acid position 1454 to prevent the autolytic cleavage in the NS3 helicase domain. The variant DNA fragment was cloned in the pET21b bacterial expression vector (Novagen) and the NS3/4A complex was expressed in Escherichia coli strain BL21 (DE3) (Invitrogen) following the protocol described by P. Gallinari et al. (see Gallinari P, Brennan D, Nardi C, Brunetti M, Tomei L, Steinkuhler C, De Francesco R., J Virol. 72(8):6758-69 (1998)) with modifications. Briefly, the NS3/4A protease complex expression was induced with 0.5 millimolar (mM) Isopropyl β-D-1-thiogalactopyranoside (IPTG) for 22 hours (h) at 20° C. A typical fermentation (1 Liter (L)) yielded approximately 10 grams (g) of wet cell paste. The cells were resuspended in lysis buffer (10 mL/g) consisting of 25 mM N-(2-Hydroxyethyl)Piperazine-N′-(2-Ethane Sulfonic acid) (HEPES), pH 7.5, 20% glycerol, 500 mM Sodium Chloride (NaCl), 0.5% Triton X-100, 1 microgram/milliliter ([…]) lysozyme, 5 mM Magnesium Chloride (MgCl2), 1 μg/ml DnaseI, 5 mM […] (βME), Protease inhibitor-Ethylenediamine Tetraacetic acid (EDTA) free (Roche), homogenized and incubated for 20 minutes (min) at 4° C. The homogenate was sonicated and clarified by ultra-centrifugation at 235000 g for 1 hour (h) at 4° C. Imidazole was added to the supernatant to a final concentration of 15 mM and the pH adjusted to 8.0. The crude protein extract was loaded on a Nickel-Nitrilotriacetic acid (Ni-NTA) column pre-equilibrated with buffer B (25 mM HEPES, pH 8.0, 20% glycerol, 500 mM NaCl, 0.5% Triton X-100, 15 mM imidazole, 5 mM βME). The sample was loaded at a flow rate of 1 mL/min. The column was washed with 15 column volumes of buffer C (same as buffer B except with 0.2% Triton X-100). The protein was eluted with 5 column volumes of buffer D (same as buffer C except with 200 mM Imidazole).
NS3/4A protease complex-containing fractions were pooled and loaded on a desalting column Superdex-S200 pre-equilibrated with buffer D (25 mM HEPES, pH 7.5, 20% glycerol, 300 mM NaCl, 0.2% Triton X-100, 10 mM (βME). Sample was loaded at a flow rate of 1 mL/min. NS3/4A protease complex-containing fractions were pooled and concentrated to approximately 0.5 mg/ml. The purity of the NS3/4A protease complexes, derived from the BMS, H77 and J4L6S strains, were judged to be greater than 90% by SDS-PAGE and mass spectrometry analyses. The enzyme was stored at −80° C., thawed on ice and diluted prior to use in assay buffer.
The purpose of this in vitro assay was to measure the inhibition of HCV NS3 protease complexes, derived from the BMS strain, H77 strain or J4L6S strain, as described above, by compounds of the present disclosure. This assay provides an indication of how effective compounds of the present disclosure would be in inhibiting HCV NS3 proteolytic activity.
In order to monitor HCV NS3/4A protease activity, an NS3/4A peptide substrate was used. […]

In test [2] the test system is HCV replicon in HUH-7 cells. The test is described as follows: HCV replicon assay (FRET, confirmed by luciferase reporter). The test is classed as cell-based, Hepatitis C virus (strain 1b). Particulars: Hepatitis C virus, 96 h, HUH-7 replicon cells, 4 days. An excerpt:
An HCV replicon whole cell system was established as described by Lohmann V, Korner F, Koch J, Herian U, Theilmann L, Bartenschlager R., Science 285(5424):110-3 (1999). This system enabled us to evaluate the effects of our HCV Protease compounds on HCV RNA replication. Briefly, using the HCV strain 1b sequence described in the Lohmann paper (Assession number: AJ238799), an HCV cDNA was synthesized by Operon Technologies, Inc. (Alameda, Calif.), and the full-length replicon was then assembled in plasmid pGem9zf(+) (Promega, Madison, Wis.) using standard molecular biology techniques. The replicon consists of (i) the HCV 5′ UTR fused to the first 12 amino acids of the capsid protein, (ii) the neomycin phosphotransferase gene (neo), (iii) the IRES from encephalomyocarditis virus (EMCV), and (iv) HCV NS3 to NS5B genes and the HCV 3′ UTR. Plasmid DNAs were linearized with Seal and RNA transcripts were synthesized in vitro using the T7 MegaScript transcription kit (Ambion, Austin, Tex.) according to manufacturer's directions. In vitro transcripts of the cDNA were transfected into the human hepatoma cell line, HUH-7. […] Resulting cell lines were characterized for positive and negative strand RNA production and protein production over time.
The HCV replicon FRET assay was developed to monitor the inhibitory effects of compounds described in the disclosure on HCV viral replication. HUH-7 cells, constitutively expressing the HCV replicon, were grown in Dulbecco's Modified Eagle Media (DMEM) (Gibco-BRL) containing 10% Fetal calf serum (FCS) (Sigma) and 1 mg/ml G418 (Gibco-BRL). Cells were seeded the night before (1.5×10^4 cells/well) in 96-well tissue-culture sterile plates. Compound and no compound controls were prepared in DMEM containing 4% FCS, 1:100 Penicillin/Streptomysin (Gibco-BRL), 1:100 L-glutamine and 5% DMSO in the dilution plate (0.5% DMSO final concentration in the assay). Compound/DMSO mixes were added to the cells and incubated for 4 days at 37° C. After 4 days, cells were first assessed for cytotoxicity using alamar Blue (Trek Diagnostic Systems) for a CC50 reading. The toxicity of compound (CC50) was determined by adding 1/10th volume of alamar Blue to the media incubating the cells. After 4 h, the fluorescence signal from each well was read, with an excitation wavelength at 530 nm and an emission wavelength of 580 nm, using the Cytofluor Series 4000 (Perspective Biosystems). Plates were then rinsed thoroughly with Phosphate-Buffered Saline (PBS) (3 times 150 μl).
As a secondary assay, EC50 determinations from the replicon FRET assay were confirmed in a replicon luciferase reporter assay. Utilization of a replicon luciferase reporter assay was first described by Krieger et al (Krieger N, Lohmann V, and Bartenschlager R, J. Viral. 75(10):4614-4624 (2001)). The replicon construct described for our FRET assay was modified by inserting cDNA encoding a humanized form of the Renilla luciferase gene and a linker sequence fused directly to the 3′-end of the luciferase gene. This insert was introduced into the replicon construct using an Asc1 restriction site located in core, directly upstream of the neomycin marker gene. The adaptive mutation at position 1179 (serine to isoleucine) was also introduced (Blight K J, Kolykhalov, A A, Rice, C M, Science 290(5498):1972-1974). A stable cell line constitutively expressing this HCV replicon construct was generated as described above. The luciferase reporter assay was set up as described for the HCV replicon FRET assay with the following modifications. Following 4 days in a 37° C./5% CO2 incubator, cells were analyzed for Renilla Luciferase activity using the Promega Dual-Glo Luciferase Assay System. Media (100 μl) was removed from each well containing cells. To the remaining 50 μl of media, 50 μl of Dual-Glo Luciferase Reagent was added, and plates rocked for 10 min to 2 h at room temperature. […]

T1 sequence (P27958 1027-1711 C1454S/C1711G, one chain of several): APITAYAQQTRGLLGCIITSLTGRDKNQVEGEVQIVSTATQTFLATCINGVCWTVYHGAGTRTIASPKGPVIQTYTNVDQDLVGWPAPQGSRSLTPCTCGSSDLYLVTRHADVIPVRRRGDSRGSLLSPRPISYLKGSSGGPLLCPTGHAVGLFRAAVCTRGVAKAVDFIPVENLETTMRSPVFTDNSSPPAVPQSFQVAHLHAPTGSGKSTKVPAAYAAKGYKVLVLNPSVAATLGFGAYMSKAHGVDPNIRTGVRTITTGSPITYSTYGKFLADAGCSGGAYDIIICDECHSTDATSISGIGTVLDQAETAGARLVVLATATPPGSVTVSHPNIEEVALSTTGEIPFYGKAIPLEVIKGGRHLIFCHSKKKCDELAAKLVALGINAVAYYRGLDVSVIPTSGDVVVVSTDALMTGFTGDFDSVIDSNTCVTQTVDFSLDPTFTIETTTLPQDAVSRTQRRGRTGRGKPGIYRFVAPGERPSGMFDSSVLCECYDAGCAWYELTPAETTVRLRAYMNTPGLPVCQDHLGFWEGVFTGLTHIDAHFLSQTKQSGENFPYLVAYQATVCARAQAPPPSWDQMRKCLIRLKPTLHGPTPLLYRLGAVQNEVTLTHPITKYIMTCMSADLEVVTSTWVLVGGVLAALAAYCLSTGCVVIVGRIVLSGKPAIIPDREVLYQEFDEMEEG

As to `C=C[C@@H]1C[C@]1(NC(=O)[C@@H]1C[C@]2(OC)CN1C(=O)[C@H](C(C)(C)C)NC(=O)OCCCCCc1cc2ccc1-c1ccccc1)C(=O)NS(=O)(=O)C1CC1` [Example 9], in test [1] (numeric values), the IC50 stood at 4 nM. In test [2] (numeric values), this molecule came in with an EC50 of 26 nM.

As for `C=C[C@@H]1C[C@]1(NC(=O)[C@@H]1C[C@]2(OC)CN1C(=O)[C@H](C(C)(C)C)NC(=O)OCCC(C)(C)CCCc1cc(OC)ccc1-c1ccc2cc1)C(=O)NS(=O)(=O)C1CC1` [Example 10], in test [1] (class symbols), the IC50 was in the range of 1 to 3 nM. In test [2] (class symbols), the EC50 lay in the range of 5.5 to 10 nM.

In test [1] (class symbols), `COc1ccc2c(c1)CCCC(C)(C)CCOC(=O)N[C@@H](C(C)(C)C)C(=O)N1C[C@@](OC)(C[C@H]1C(=O)N[C@]1(C(=O)NS(=O)(=O)C3CC3)C[C@H]1C1CC1)c1ccc-2cc1` [Example 11] displayed an IC50 of 1 to 3 nM. The EC50 in test [2] (class symbols) lay in the range of 5.5 to 10 nM.

As to `C=C[C@@H]1C[C@]1(NC(=O)[C@@H]1C[C@]2(OC)CN1C(=O)[C@H](C(C)(C)C)NC(=O)OCC(C)(C)CCCCc1cc(OC)ccc1-c1ccc2cc1)C(=O)NS(=O)(=O)C1CC1` [Example 12], the IC50 in test [1] (class symbols) fell in the range of 1 to 3 nM. In test [2] (class symbols), the EC50 was in the range of 5.5 to 10 nM.

Values taken from US8563505B2, “Hepatitis C virus inhibitors” (priority 2008, dated 2013).
